The values that follow come from ChEMBL document CHEMBL5729289, “JAK inhibitor and use thereof” (2022).

pIC50: −log10 of the molar value.

Test [1] addresses Tyrosine-protein kinase JAK1 (Homo sapiens, UniProt P23458). Briefly: In Vitro Activity Assay: JAK1 (h) was incubated with 20 mM Tris/HCl pH 7.5, 0.2 mM EDTA, 500 μM […], 10 mM magnesium acetate and [γ-33P]-ATP (activity and concentration were formulated as needed). Mg/ATP mixture was added to initiate the reaction. After incubating at room temperature for 40 minutes, the reaction mixture was added with 0.5% phosphoric acid to stop the reaction. Then 10 μL reaction solution was spotted on a P30 filter pad and washed with 0.425% phosphoric acid three times and methanol once over 4 minutes, dried, and counted scintillation.

Test [2] addresses Tyrosine-protein kinase JAK2 (Homo sapiens, UniProt O60674). The test is described as follows: In Vitro Activity Assay: JAK2 (h) and 8 mM MOPS pH 7.0, 0.2 mM EDTA, 100M KTFCGTPEYLAPEVRREPRILSEEEQEMFRDFDYIADWC, 10 mM magnesium acetate and [γ-33P]-ATP (activity and concentration were formulated as needed) were incubated together. Mg/ATP mixture was added to initiate the reaction. After incubating at room temperature for 40 minutes, the reaction mixture was added with 0.5% phosphoric acid to ….

For test [3], the target named is T1, Tyrosine-protein kinase JAK3 (Homo sapiens, UniProt P52333).
T1 sequence (P52333 whole entry): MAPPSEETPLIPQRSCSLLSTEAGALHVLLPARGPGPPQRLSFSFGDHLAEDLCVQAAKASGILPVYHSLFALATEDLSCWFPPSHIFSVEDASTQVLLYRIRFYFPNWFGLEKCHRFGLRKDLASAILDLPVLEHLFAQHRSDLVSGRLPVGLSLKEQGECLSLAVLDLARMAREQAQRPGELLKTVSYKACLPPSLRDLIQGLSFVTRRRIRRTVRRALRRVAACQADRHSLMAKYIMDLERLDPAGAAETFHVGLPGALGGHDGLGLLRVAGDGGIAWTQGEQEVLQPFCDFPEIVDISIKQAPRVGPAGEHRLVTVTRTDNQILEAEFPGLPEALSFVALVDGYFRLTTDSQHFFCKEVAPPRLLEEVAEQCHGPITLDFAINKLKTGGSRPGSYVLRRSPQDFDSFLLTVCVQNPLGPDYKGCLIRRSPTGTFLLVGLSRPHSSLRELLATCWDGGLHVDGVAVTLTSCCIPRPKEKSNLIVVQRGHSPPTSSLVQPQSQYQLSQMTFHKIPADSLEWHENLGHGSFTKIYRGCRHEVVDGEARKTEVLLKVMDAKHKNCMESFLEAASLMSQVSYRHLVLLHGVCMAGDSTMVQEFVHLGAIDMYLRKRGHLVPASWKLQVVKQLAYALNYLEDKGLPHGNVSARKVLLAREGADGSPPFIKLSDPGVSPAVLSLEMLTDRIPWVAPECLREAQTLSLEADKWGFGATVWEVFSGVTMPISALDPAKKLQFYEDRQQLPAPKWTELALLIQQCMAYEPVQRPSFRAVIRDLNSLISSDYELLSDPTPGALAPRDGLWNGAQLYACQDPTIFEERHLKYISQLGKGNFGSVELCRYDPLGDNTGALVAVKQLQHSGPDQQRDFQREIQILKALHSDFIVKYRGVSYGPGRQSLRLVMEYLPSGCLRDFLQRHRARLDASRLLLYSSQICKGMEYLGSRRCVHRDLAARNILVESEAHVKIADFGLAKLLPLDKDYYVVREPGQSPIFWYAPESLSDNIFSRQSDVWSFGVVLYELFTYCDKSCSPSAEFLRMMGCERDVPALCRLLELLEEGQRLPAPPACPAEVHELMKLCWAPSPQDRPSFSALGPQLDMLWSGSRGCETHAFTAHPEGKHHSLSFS
Briefly: In Vitro Activity Assay: JAK3 (h) was incubated with 8 mM MOPS pH 7.0, 0.2 mM EDTA, 500 μM […], 10 mM magnesium acetate and [γ-33P]-ATP (activity and concentration were formulated as needed). Mg/ATP mixture was added to initiate the reaction. After incubating at room temperature for 40 minutes, the reaction mixture was added with 0.5% phosphoric acid to stop the reaction. Then 10 μL the reaction solution was spotted on a P30 filter pad and washed with 0.425% phosphoric acid three times and methanol once over 4 minutes, dried, and counted scintillation.

In test [4] the target is Non-receptor tyrosine-protein kinase TYK2 (Homo sapiens, UniProt P29597). Briefly: In Vitro Activity Assay: TYK2 (h) was incubated with 8 mM MOPS pH 7.0, 0.2 mM EDTA, 250 μM […], 10 mM magnesium acetate and [γ-33P]-ATP (activity and concentration were formulated as needed). Mg/ATP mixture was added to initiate the reaction. After incubating at room temperature for 40 minutes, the reaction mixture was added with 0.5% phosphoric acid to stop the reaction. Then 10 μL reaction was spotted on a P30 filter pad and washed with 0.425% phosphoric acid three times and methanol once over 4 minutes, dried, and counted scintillation.
Chain of Non-receptor tyrosine-protein kinase TYK2 (P29597 whole entry): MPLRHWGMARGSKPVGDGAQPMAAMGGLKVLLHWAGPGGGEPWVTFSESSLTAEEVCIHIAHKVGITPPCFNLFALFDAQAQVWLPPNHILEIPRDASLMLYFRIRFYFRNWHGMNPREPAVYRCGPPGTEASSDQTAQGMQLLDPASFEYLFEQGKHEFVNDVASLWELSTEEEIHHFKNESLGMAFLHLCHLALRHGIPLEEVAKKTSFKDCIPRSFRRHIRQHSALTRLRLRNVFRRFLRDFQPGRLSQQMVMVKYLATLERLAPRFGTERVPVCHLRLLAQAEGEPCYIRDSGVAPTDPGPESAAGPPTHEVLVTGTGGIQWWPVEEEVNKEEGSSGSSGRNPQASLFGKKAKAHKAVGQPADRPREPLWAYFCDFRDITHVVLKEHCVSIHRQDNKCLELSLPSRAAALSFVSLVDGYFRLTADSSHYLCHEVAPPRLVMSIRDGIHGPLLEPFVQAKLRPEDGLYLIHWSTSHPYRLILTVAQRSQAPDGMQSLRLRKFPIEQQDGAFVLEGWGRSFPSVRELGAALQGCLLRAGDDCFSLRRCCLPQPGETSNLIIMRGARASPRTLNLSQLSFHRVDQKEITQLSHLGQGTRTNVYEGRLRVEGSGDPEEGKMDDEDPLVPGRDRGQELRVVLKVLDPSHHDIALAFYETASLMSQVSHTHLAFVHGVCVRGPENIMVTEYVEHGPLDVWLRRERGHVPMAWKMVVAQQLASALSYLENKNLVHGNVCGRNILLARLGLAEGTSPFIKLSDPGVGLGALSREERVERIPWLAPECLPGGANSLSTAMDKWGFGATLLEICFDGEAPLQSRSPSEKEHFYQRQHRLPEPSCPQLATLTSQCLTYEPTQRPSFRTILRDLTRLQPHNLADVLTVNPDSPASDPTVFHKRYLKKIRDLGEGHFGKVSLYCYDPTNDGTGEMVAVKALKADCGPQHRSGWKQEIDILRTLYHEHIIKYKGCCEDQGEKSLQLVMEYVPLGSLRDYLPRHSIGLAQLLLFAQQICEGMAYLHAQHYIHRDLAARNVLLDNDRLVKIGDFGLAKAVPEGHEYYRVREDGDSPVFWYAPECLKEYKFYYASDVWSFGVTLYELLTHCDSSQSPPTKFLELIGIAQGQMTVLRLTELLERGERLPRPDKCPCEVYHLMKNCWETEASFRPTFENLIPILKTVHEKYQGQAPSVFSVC

Chain of Tyrosine-protein kinase JAK1 (P23458 whole entry): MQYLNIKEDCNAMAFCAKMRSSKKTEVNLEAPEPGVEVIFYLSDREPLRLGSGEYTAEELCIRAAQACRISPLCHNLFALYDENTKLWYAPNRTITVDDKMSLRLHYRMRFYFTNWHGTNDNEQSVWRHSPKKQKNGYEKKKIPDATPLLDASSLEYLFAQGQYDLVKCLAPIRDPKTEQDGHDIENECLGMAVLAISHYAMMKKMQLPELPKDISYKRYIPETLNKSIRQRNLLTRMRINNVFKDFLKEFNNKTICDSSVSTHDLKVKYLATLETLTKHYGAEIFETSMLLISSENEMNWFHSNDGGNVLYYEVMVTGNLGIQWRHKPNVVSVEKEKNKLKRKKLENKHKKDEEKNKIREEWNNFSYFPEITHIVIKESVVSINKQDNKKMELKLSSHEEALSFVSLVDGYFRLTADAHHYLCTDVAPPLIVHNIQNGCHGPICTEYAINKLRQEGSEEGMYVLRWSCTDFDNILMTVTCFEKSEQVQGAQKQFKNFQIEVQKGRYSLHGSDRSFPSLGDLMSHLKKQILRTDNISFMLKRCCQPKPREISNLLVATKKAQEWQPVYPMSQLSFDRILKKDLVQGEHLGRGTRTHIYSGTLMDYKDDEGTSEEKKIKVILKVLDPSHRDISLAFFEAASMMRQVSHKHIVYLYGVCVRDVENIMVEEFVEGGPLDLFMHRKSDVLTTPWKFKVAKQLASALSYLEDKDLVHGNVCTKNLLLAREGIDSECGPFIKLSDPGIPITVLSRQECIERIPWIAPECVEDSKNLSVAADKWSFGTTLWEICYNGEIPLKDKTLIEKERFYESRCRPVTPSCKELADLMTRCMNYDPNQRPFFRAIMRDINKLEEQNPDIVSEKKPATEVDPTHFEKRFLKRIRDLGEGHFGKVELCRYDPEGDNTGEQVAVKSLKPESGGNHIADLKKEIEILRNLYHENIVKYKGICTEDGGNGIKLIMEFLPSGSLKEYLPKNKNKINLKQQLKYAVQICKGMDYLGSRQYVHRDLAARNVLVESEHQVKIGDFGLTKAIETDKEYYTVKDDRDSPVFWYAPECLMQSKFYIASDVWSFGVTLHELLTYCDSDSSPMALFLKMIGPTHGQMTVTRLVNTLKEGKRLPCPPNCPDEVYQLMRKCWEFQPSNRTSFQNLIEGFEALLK
Chain of Tyrosine-protein kinase JAK2 (O60674 whole entry): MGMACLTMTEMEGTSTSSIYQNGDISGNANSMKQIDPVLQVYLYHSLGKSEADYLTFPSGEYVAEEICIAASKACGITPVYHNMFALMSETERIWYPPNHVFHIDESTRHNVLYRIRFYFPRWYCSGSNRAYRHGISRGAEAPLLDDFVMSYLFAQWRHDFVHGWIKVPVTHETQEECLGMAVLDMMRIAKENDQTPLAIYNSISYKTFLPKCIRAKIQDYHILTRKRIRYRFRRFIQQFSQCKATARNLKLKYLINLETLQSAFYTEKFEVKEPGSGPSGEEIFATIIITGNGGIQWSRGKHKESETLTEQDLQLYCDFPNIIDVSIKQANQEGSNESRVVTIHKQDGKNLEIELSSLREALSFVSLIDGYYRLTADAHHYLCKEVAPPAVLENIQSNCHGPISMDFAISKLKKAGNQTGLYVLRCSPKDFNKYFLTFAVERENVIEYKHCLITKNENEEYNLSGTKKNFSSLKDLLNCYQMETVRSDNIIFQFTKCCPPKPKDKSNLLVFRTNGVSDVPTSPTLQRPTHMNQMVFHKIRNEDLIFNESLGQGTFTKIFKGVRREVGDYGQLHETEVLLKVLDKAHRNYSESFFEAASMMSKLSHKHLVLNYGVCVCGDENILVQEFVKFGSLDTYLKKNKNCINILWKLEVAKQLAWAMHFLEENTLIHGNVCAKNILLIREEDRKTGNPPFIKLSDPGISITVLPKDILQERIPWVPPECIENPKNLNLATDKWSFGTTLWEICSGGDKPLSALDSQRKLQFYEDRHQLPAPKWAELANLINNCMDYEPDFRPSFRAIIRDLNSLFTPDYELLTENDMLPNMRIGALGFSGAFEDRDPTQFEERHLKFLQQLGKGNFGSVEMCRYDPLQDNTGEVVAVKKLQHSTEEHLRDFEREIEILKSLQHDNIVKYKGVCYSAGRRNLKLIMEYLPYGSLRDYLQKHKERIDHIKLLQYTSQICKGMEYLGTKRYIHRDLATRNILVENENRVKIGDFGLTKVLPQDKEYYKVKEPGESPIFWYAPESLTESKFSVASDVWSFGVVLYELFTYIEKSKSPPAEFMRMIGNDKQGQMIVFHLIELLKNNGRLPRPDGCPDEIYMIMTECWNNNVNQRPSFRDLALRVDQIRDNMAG

Consider `CC1(C(=O)NC2CC=C(c3cccc4nc(NC(=O)C5CC5)nn34)CC2)CC1(F)F` (configuration not stated), for which the negative-log IC50 (pIC50) in test [1] was 6.68; in test [2], 5.94; in test [3], less than 5.00; in test [4], 6.14.

As to `N#CC1(C(=O)NC2CC=C(c3cccc4nc(NC(=O)C5CC5)nn34)CC2)CC1` (configuration not stated), the negative logarithm of the IC50 (pIC50) in test [1] is 6.74; in test [2], 5.86; in test [3], less than 5.00.

One may read the pIC50 as the IC50 on a negative log10 scale, so that one unit is a factor of ten.
